Where “and” joins values, the source holds several entries; their conditions need not be identical. Equal values may be shown once. ± gives the expanded uncertainty stated by the source. One block for each compound: values may come before it.
Tests used:
[1] = Liquid, DSC
[2] = Boiling temperature at pressure P; details: Liquid, DSC

vapor or sublimation pressure ([1]; 483.46 K): 1.73 ± 0.19 kPa
SMILES: CCCCCCCCCCCCCCCCCCO [1-octadecanol]

vapor or sublimation pressure ([1]; 459.56 K): 1.69 ± 0.19 kPa
SMILES: CCCC(=O)OCC(COC(=O)CCC)OC(=O)CCC [1,2,3-propanetriyl tributanoate]

vapor or sublimation pressure ([1]; 532.03 K): 1.7 ± 0.19 kPa
Boiling temperature at pressure P ([2]; 0.54 kPa): 231.07 ± 2.4 °C
Boiling temperature at pressure P ([2]; 1.42 kPa): 253.1 ± 3.1 °C
Boiling temperature at pressure P ([2]; 1.74 kPa): 258.40 ± 2.4 °C
Boiling temperature at pressure P ([2]; 2.14 kPa): 263.86 ± 2.6 °C
Boiling temperature at pressure P ([2]; 2.63 kPa): 269.97 ± 2.8 °C
SMILES: CCCCCCCCC(=O)OCC(CO)OC(=O)CCCCCCCC (configuration not stated) [dinonanoin]

vapor or sublimation pressure ([1]; 462.29 K): 1.73 ± 0.17 kPa and 1.72 ± 0.17 kPa
SMILES: CCCCCCCCCCCCCCCCO [1-hexadecanol]

vapor or sublimation pressure ([1]; 437.72 K): 1.72 ± 0.19 kPa
SMILES: CCCCCCCCCCCCCC(=O)OC [methyl tetradecanoate]

vapor or sublimation pressure ([1]; 478.88 K): 1.69 ± 0.19 kPa
SMILES: CCCCCCCCC(=O)OCC(O)CO (configuration not stated) [2,3-dihydroxypropyl nonanoate]

vapor or sublimation pressure ([1]; 550.62 K): 1.7 ± 0.17 kPa
SMILES: CCCCCCCCCCCCCCCCCCCCCCCCCCCC [octacosane]

From the NIST ThermoML archive (doi:10.1021/acs.jced.8b00168)
